# Test results published in publication PMC7584476, “Safety and efficacy of BAY1436032 in IDH1-mutant AML: phase I study results” (Leukemia, 2020).
# “Also recorded” adds a separate entry of the source.
# Tested on: subjects with mIDH1 advanced AML
# Assay: Phase I study: safety and tolerability (TEAE, DLT, MTD, ECG)
# Format: in vivo
# Procedure: This study was an open-label, nonrandomized, multicenter phase I trial. Subjects were screened at 13 hospital sites in 2 countries (USA and Germany). The study was to consist of dose-escalation followed by dose-expansion. The MTD identified in dose-escalation was to be used in the dose-expansion. If MTD was not reached in dose-escalation, a dose for the expansion would be selected based on available PK, pharmacodynamic, safety, and efficacy data. BAY1436032 was administered twice-daily (BID) in continuous 28-day cycles. In dose-escalation, up to 9 evaluable subjects could be enrolled per cohort, with a minimum of 3 dose-limiting toxicity (DLT)-free evaluable subjects required prior to escalating to the next highest dose. Bayesian dose-DLT modeling was performed to help guide dosing decisions.
# DLTs were differentially defined for nonhematopoietic versus hematopoietic toxicities. Nonhematopoietic toxicities of ≥grade 3 occurring during the first cycle of treatment were to be considered DLTs with the following exceptions: (1) Alopecia and nausea controlled by medical management; (2) Tumor lysis syndrome if successfully managed clinically and resolved within 7 days without any end-organ damage; (3) Differentiation syndrome (DS) if successfully managed clinically and resolved within 7 days without any end-organ damage; (4) Asymptomatic ≥grade 3 electrolyte abnormalities not considered clinically significant by the investigator. […] For certain toxicities such as laboratory assessments without a clear clinical correlate, a discussion between the investigator and the sponsor determined whether the adverse event (AE) should be assessed as a DLT.
# DLTs identified during the first cycle of treatment were used to guide dose-escalation decisions and to determine the MTD, and if safety issues appeared in subsequent cycles they were also to be considered. Hydroxyurea was permitted during the first cycle if white blood cell (WBC) exceeded 20 × 10^9/L and was also permitted for treatment of DS.
# Safety and tolerability were evaluated by analysis of adverse events, physical examinations, vital signs, ECOG performance status, and various laboratory assessments. For safety monitoring, subjects were scheduled for clinic visits every week for the initial three cycles of treatment, after which time visits could be reduced to every-other-week with investigator and sponsor agreement. Cardiac function was assessed with triplicate 12-lead electrocardiograms (ECG) at screening, C1-D1, C1-D2, C1-D15, D1 of every subsequent cycle, and at treatment end. […] AEs are presented by the Medical Dictionary for Regulatory Activities (MedDRA) v21.1.
smiles,measurement,setting,value
C[C@H]1C[C@@H](n2c(Nc3ccc(OC(F)(F)F)cc3)nc3cc(CCC(=O)O)ccc32)CC(C)(C)C1 [BAY1436032],TEAE Sepsis Grade 5,"1500 mg BID, n=9",1
same,TEAE Sinus tachycardia Grade 1,"1500 mg BID, n=9",1
same,TEAE Thrombocytopenia Grade 4,"1500 mg BID, n=9",2
same,TEAE Vomiting Grade 1,"1500 mg BID, n=9",3
same,TEAE Weight decreased Grade 1,"1500 mg BID, n=9",0
same,TEAE Weight decreased Grade 2,"1500 mg BID, n=9",0
same,TEAE Weight decreased Grade 3,"1500 mg BID, n=9",1
same,Deaths during treatment or within 30 days of discontinuation,27 treated,Six of 27
same,Related TEAE DS grade 3,27 treated,single subject
same,Related TEAE Fatigue Grade 3,27 treated,single subject
same,Related TEAE amylase increase grade 3,27 treated,single subject
same,Related TEAE anemia grade 4,27 treated,single subject
same,Related TEAE decreased WBC count grade 3,27 treated,single subject
same,Related TEAE decreased neutrophil count grade 4,27 treated,single subject
same,Related TEAE decreased platelet count grade 4,27 treated,single subject
same,Related TEAE febrile neutropenia grade 3,27 treated,single subject
same,Related TEAE hyponatremia grade 3,27 treated,single subject
same,Related TEAE ileus grade 4,27 treated,single subject
same,Related TEAE lung infiltration grade 3,27 treated,single subject
same,Related TEAE peripheral edema grade 3,27 treated,single subject
same,Related TEAE pneumonitis grade 3,27 treated,single subject
same,Related TEAE sepsis grade 4,27 treated,single subject
same,Subjects with DS or symptoms associated with DS,27 treated,19%
same,Subjects with at least 1 TEAE of any grade related to BAY1436032,27 treated,Seventeen of 27
same,Subjects with at least 1 TEAE of ≥grade 3 related to BAY1436032,27 treated,Seven of 27
same,Subjects with at least 1 TEAE ≥ grade 3 irrespective of relationship,27 treated,Twenty-four
same,Maximum tolerated dose,300 to 1500 mg BID,not identified; also recorded: No MTD was identified
same,Related TEAE Decreased appetite Grade 1,"Total, n=27",1 (4) n (%)
same,Related TEAE Decreased appetite Grade 2,"Total, n=27",1 (4) n (%)
same,Related TEAE Diarrhea Grade 2,"Total, n=27",2 (7) n (%)
same,Related TEAE Differentiation syndrome Grade 2,"Total, n=27",1 (4) n (%)
same,Related TEAE Differentiation syndrome Grade 3,"Total, n=27",1 (4) n (%)
same,Related TEAE Dyspnea Grade 1,"Total, n=27",2 (7) n (%)
same,Related TEAE Dyspnea Grade 2,"Total, n=27",1 (4) n (%)
same,Related TEAE Fatigue Grade 1,"Total, n=27",1 (4) n (%)
same,Related TEAE Fatigue Grade 2,"Total, n=27",2 (7) n (%)
same,Related TEAE Fatigue Grade 3,"Total, n=27",1 (4) n (%)
same,Related TEAE Hypomagnesaemia Grade 1,"Total, n=27",2 (7) n (%)
same,Related TEAE Nausea Grade 1,"Total, n=27",4 (15) n (%)
same,Related TEAE Nausea Grade 2,"Total, n=27",1 (4) n (%)
same,Related TEAE Sinus tachycardia Grade 1,"Total, n=27",2 (7) n (%)
same,Related TEAE Vomiting Grade 1,"Total, n=27",4 (15) n (%)
same,TEAE Abdominal pain upper Grade 1,"Total, n=27",2 (7) n (%)
same,TEAE Abdominal pain upper Grade 2,"Total, n=27",1 (4) n (%)
same,TEAE Acute kidney injury Grade 1,"Total, n=27",1 (4) n (%)
same,TEAE Acute kidney injury Grade 2,"Total, n=27",1 (4) n (%)
same,TEAE Acute kidney injury Grade 3,"Total, n=27",1 (4) n (%)
same,TEAE Anaemia Grade 3,"Total, n=27",4 (15) n (%)
same,TEAE Anaemia Grade 4,"Total, n=27",1 (4) n (%)
same,TEAE Anxiety Grade 1,"Total, n=27",2 (7) n (%)
same,TEAE Anxiety Grade 2,"Total, n=27",1 (4) n (%)
same,TEAE Arthralgia Grade 1,"Total, n=27",1 (4) n (%)
same,TEAE Arthralgia Grade 2,"Total, n=27",2 (7) n (%)
same,TEAE Constipation Grade 1,"Total, n=27",4 (15) n (%)
same,TEAE Constipation Grade 2,"Total, n=27",1 (4) n (%)
same,TEAE Contusion Grade 1,"Total, n=27",3 (11) n (%)
same,TEAE Contusion Grade 2,"Total, n=27",1 (4) n (%)
same,TEAE Cough Grade 1,"Total, n=27",3 (11) n (%)
same,TEAE Cough Grade 2,"Total, n=27",2 (7) n (%)
same,TEAE Decreased appetite Grade 1,"Total, n=27",5 (19) n (%)
same,TEAE Decreased appetite Grade 2,"Total, n=27",3 (11) n (%)
same,TEAE Decreased appetite Grade 3,"Total, n=27",1 (4) n (%)
same,TEAE Diarrhea Grade 1,"Total, n=27",7 (26) n (%)
same,TEAE Diarrhea Grade 2,"Total, n=27",3 (11) n (%)
same,TEAE Dry skin Grade 1,"Total, n=27",5 (19) n (%)
same,TEAE Dyspnoea Grade 1,"Total, n=27",4 (15) n (%)
same,TEAE Dyspnoea Grade 2,"Total, n=27",2 (7) n (%)
same,TEAE Dyspnoea Grade 3,"Total, n=27",3 (11) n (%)
same,TEAE Epistaxis Grade 1,"Total, n=27",3 (11) n (%)
same,TEAE Epistaxis Grade 2,"Total, n=27",2 (7) n (%)
same,TEAE Epistaxis Grade 3,"Total, n=27",1 (4) n (%)
same,TEAE Fall Grade 1,"Total, n=27",4 (15) n (%)
same,TEAE Fatigue Grade 1,"Total, n=27",4 (15) n (%)
same,TEAE Fatigue Grade 2,"Total, n=27",4 (15) n (%)
same,TEAE Fatigue Grade 3,"Total, n=27",3 (11) n (%)
same,TEAE Febrile neutropenia Grade 3,"Total, n=27",7 (26) n (%)
same,TEAE General physical health deterioration Grade 3,"Total, n=27",2 (7) n (%)
same,TEAE General physical health deterioration Grade 5,"Total, n=27",1 (4) n (%)
same,TEAE Gingivitis Grade 1,"Total, n=27",3 (11) n (%)
same,TEAE Haematuria Grade 1,"Total, n=27",2 (7) n (%)
same,TEAE Haematuria Grade 2,"Total, n=27",1 (4) n (%)
same,TEAE Haematuria Grade 3,"Total, n=27",1 (4) n (%)
same,TEAE Headache Grade 1,"Total, n=27",1 (4) n (%)
same,TEAE Headache Grade 2,"Total, n=27",2 (7) n (%)
same,TEAE Headache Grade 3,"Total, n=27",1 (4) n (%)
same,TEAE Hyperkalaemia Grade 1,"Total, n=27",2 (7) n (%)
same,TEAE Hyperkalaemia Grade 4,"Total, n=27",1 (4) n (%)
same,TEAE Hypertension Grade 2,"Total, n=27",2 (7) n (%)
same,TEAE Hypertension Grade 3,"Total, n=27",1 (4) n (%)
same,TEAE Hyperuricaemia Grade 1,"Total, n=27",4 (15) n (%)
same,TEAE Hyperuricaemia Grade 3,"Total, n=27",1 (4) n (%)
same,TEAE Hypokalaemia Grade 1,"Total, n=27",3 (11) n (%)
same,TEAE Hypokalaemia Grade 2,"Total, n=27",1 (4) n (%)
same,TEAE Hypokalaemia Grade 3,"Total, n=27",2 (7) n (%)
same,TEAE Hyponatraemia Grade 1,"Total, n=27",2 (7) n (%)
same,TEAE Hyponatraemia Grade 3,"Total, n=27",1 (4) n (%)
same,TEAE Hypophosphataemia Grade 1,"Total, n=27",1 (4) n (%)
same,TEAE Hypophosphataemia Grade 2,"Total, n=27",2 (7) n (%)
same,TEAE Leukocytosis Grade 2,"Total, n=27",2 (7) n (%)
same,TEAE Leukocytosis Grade 3,"Total, n=27",2 (7) n (%)
same,TEAE Lung infection Grade 3,"Total, n=27",3 (11) n (%)
same,TEAE Lung infection Grade 5,"Total, n=27",1 (4) n (%)
same,TEAE Nausea Grade 1,"Total, n=27",5 (19) n (%)
same,TEAE Nausea Grade 2,"Total, n=27",2 (7) n (%)
same,TEAE Nausea Grade 3,"Total, n=27",2 (7) n (%)
same,TEAE Oedema peripheral Grade 1,"Total, n=27",6 (22) n (%)
same,TEAE Oedema peripheral Grade 3,"Total, n=27",2 (7) n (%)
same,TEAE Pain in extremity Grade 1,"Total, n=27",2 (7) n (%)
same,TEAE Pain in extremity Grade 2,"Total, n=27",1 (4) n (%)
same,TEAE Pneumonia Grade 1,"Total, n=27",1 (4) n (%)
same,TEAE Pneumonia Grade 2,"Total, n=27",2 (7) n (%)
same,TEAE Pneumonia Grade 3,"Total, n=27",3 (11) n (%)
same,TEAE Pneumonia fungal Grade 2,"Total, n=27",1 (4) n (%)
same,TEAE Pneumonia fungal Grade 3,"Total, n=27",1 (4) n (%)
same,TEAE Pneumonia fungal Grade 4,"Total, n=27",1 (4) n (%)
same,TEAE Productive cough Grade 1,"Total, n=27",2 (7) n (%)
same,TEAE Productive cough Grade 2,"Total, n=27",1 (4) n (%)
same,TEAE Pyrexia Grade 1,"Total, n=27",4 (15) n (%)
same,TEAE Pyrexia Grade 2,"Total, n=27",1 (4) n (%)
same,TEAE Pyrexia Grade 3,"Total, n=27",3 (11) n (%)
same,TEAE Rash Grade 1,"Total, n=27",1 (4) n (%)
same,TEAE Rash Grade 2,"Total, n=27",3 (11) n (%)
same,TEAE Sepsis Grade 4,"Total, n=27",3 (11) n (%)
same,TEAE Sepsis Grade 5,"Total, n=27",2 (7) n (%)
same,TEAE Sinus tachycardia Grade 1,"Total, n=27",3 (11) n (%)
same,TEAE Thrombocytopenia Grade 4,"Total, n=27",3 (11) n (%)
same,TEAE Vomiting Grade 1,"Total, n=27",7 (26) n (%)
same,TEAE Weight decreased Grade 1,"Total, n=27",3 (11) n (%)
same,TEAE Weight decreased Grade 2,"Total, n=27",3 (11) n (%)
same,TEAE Weight decreased Grade 3,"Total, n=27",1 (4) n (%)
same,Subjects with DS or symptoms associated with DS,count of 27 treated,Five of 27
same,Dose-limiting toxicities,"grade 4 ileus, subject 21, cohort 4",single DLT
same,Clinically significant ECG changes such as QTc prolongation related to treatment,in vivo,no clinically significant ECG
same,Deaths attributed to study drug,in vivo,none
same,Episodes of ≥grade 3 QT prolongation,in vivo,no episodes
